In PubChem BioAssay AID1963844 (Molecular Pharmacology Branch, DTP, NCI, 2024):
Several values for one entry are separate records, joined by “and”; a condition that tells them apart may be missing. Identical values can stand only once.

System: 422866-222-R5-J1-PDC complex spheroid viability
Test: Anticancer human tumor 422866-222-R5-J1-PDC patient-derived pancreatic adenocarcinoma cell line growth inhibition [POLQ]
Conditions: for viability, T/C: stronger effect = lower value
Protocol: Multicellular complex tumor spheroid response to Polymerase (POL) inhibitors (novobiocin, ART-558, RP6685) in combination with a variety of drugs and investigational agents in selected tumor cell lines
The POL inhibitors (novobiocin, ART-558, and RP6685) were evaluated both individually and in combination with standard of care and investigational anticancer small molecules within a complex spheroid model of solid tumors. . Complex spheroids include a stromal component modeled by human endothelial cells (HUVEC) and fibroblasts modeled by human mesenchymal stem cells (MSCs). The concentration ranges selected for each drug and investigational agent were based upon clinically achievable concentrations if the clinical Cmax of the agent was known.
Compounds. The drugs and investigational agents: novobiocin (NSC847541), ART-558 (NSC835418), RP-6685 (NSC848927), peposertib (NSC802822), ceralasertib (NSC780249), elimusertib (NSC800525), camonsertib (NSC841442), AZD-1390 (NSC803789), olaparib (NSC753686), talazoparib (NSC767125), rucaparib (NSC756644), sotorasib (NSC818433), MRTX-1133 (NSC836407), SN-38 (NSC673596), topotecan (NSC609699), epotoside (NSC141540), doxorubicin (NSC123127), gemcitabine (NSC613327), 5-fluorouracil (NSC19893), paclitaxel (NSC125973), vemurafenib (NSC761431), MSA-2 (NSC828583), SN-011 (NSC837082), adavosertib (NSC754352), prexasertib (NSC758257), carboplatin (NSC241240) and oxaliplatin (NSC266046), were obtained from the National Cancer Institute (NCI) Developmental Therapeutics Program Chemical Repository (21). The FDA-approved anticancer drug set is available from the Developmental Therapeutics Program at https://dtp.cancer.gov/organization/dscb/obtaining/. […] The stock solutions were prepared in dimethyl sulfoxide (DMSO, Sigma-Aldrich, St. Louis, MO, cat. D2650), except for the platinum compounds which were prepared in saline (Quality Biological, Gaithersburg, MD, cat. 114-055-101), at 800-fold the tested concentration and stored at -70 degrees C prior to their use. All drugs and investigational agents were tested over a range starting from a high concentration at or near the clinical Cmax and decreasing in half-log increments. If the clinical Cmax for an agent had not been determined, the highest concentration tested was 10 microM, except for SN-38, which was tested at a high concentration of 1 microM.
Cell Culture. All cells were maintained in an incubator at 37 degrees C and 5% CO2 with 95% humidity. The PDC lines were cultured according to standard operating procedures established by the NCI PDMR (https://pdmr.cancer.gov). Table 3 of the manuscript, lists the cell lines along with the number of the three cell types plated to form the mct-spheroids and media for tumor cell growth. After thawing, all PDC lines, except 997537-175-T-J1-PDC and 415267-285-R-J2-PDC, were cultured in Matrigel-coated flasks prepared with a working solution of 1X Ham's F-12 nutrient mix, without supplementation (Thermo Fisher Scientific, cat. 11765054), 100 U/mL penicillin-streptomycin (Thermo Fisher Scientific, cat. 15140122), and 2.5% Matrigel (Corning Inc., Corning, NY, cat. 354248) for the first three passages. The two PDC lines 997537-175-T-J1-PDC and 415267-285-R-J2-PDC were cultured on uncoated flasks. The 857933-349-R-J2-PDC line was cultured in 6C/Colon 1B media containing advanced DMEM/F-12 (Thermo Fisher Scientific, cat. 12634028), 10 mM HEPES (Thermo Fisher Scientific, cat. 15630080), 1X GlutaMAX supplement (Thermo Fisher Scientific, cat. 35050061), 0.1 mg/mL primocin (InvivoGen, San Diego, CA, cat. ant-pm-2), 10% defined fetal bovine serum, heat inactivated (HyClone Laboratories Inc., Logan, UT, cat. SH30070.03HI), 50% L-WRN conditioned media (ATCC, cat. CRL-3276), 1.25 mM N-Acetyl-L-cysteine (Sigma-Aldrich, cat. A9165), 10 mM nicotinamide (Sigma-Aldrich, cat. N0636), 1X B-27 supplement (Thermo Fisher Scientific, cat. 17504044), 1X N-2 supplement (Thermo Fisher Scientific, cat. […]
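Also: spheroids exposed to compounds for one week before readout.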
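For viability, T/C in this document: percent of DMSO vehicle wells luminescence so 100% = untreated viability.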

For `Nc1ccn(C2OC(CO)C(O)C2(F)F)c(=O)n1` (centres undefined), the viability, T/C (compound 0.0316 µM) was 62.1% and 51.8% and 64.1%, the viability, T/C (compound 0.1 µM) was 54.6% and 35.1% and 56.4% and the viability, T/C (compound 0.316 µM) was 41% and 37% and 34.6%. For the same compound, the viability, T/C (compound 1 µM) was 41.4% and 31.6% and 43%, the viability, T/C (compound 3.16 µM) was 38.3% and 35.9% and 36.3% and the viability, T/C (compound 10 µM) was 40.9% and 38.9% and 34.1%. For the same compound, the IC50 (curve of compound) was 120 nM and < 31.6 nM and 146 nM.
`Nc1ccn(C2OC(CO)C(O)C2(F)F)c(=O)n1` (centres undefined) + COC1C(OC(N)=O)C(O)C(Oc2ccc3c(O)c(NC(=O)c4ccc(O)c(CC=C(C)C)c4)c(=O)oc3c2C)OC1(C)C was tested, and the IC50 (curve of first compound, second compound 0.0316 µM) was 110 nM, the IC50 (curve of first compound, second compound 0.1 µM) was 94 nM and the IC50 (curve of first compound, second compound 0.316 µM) was 105 nM. It also gave an IC50 (curve of first compound, second compound 1 µM) of 74.6 nM, an IC50 (curve of first compound, second compound 3.16 µM) of 139 nM and an IC50 (curve of first compound, second compound 10 µM) of 67.4 nM. It also gave a viability, T/C (second compound 0.0316 µM, first compound 0.0316 µM) of 73.5%, a viability, T/C (second compound 0.0316 µM, first compound 0.1 µM) of 49.9% and a viability, T/C (second compound 0.0316 µM, first compound 0.316 µM) of 40.9%. For the same compound, the viability, T/C (second compound 0.0316 µM, first compound 1 µM) was 33.1%, the viability, T/C (second compound 0.0316 µM, first compound 3.16 µM) was 28% and the viability, T/C (second compound 0.0316 µM, first compound 10 µM) was 32%. For the same compound, the viability, T/C (second compound 0.1 µM, first compound 0.0316 µM) was 75.6%, the viability, T/C (second compound 0.1 µM, first compound 0.1 µM) was 47.7% and the viability, T/C (second compound 0.1 µM, first compound 0.316 µM) was 40.9%. The viability, T/C (second compound 0.1 µM, first compound 1 µM) was 33.7%, the viability, T/C (second compound 0.1 µM, first compound 3.16 µM) was 32.6% and the viability, T/C (second compound 0.1 µM, first compound 10 µM) was 36.2%. For the same compound, the viability, T/C (second compound 0.316 µM, first compound 0.0316 µM) was 74%, the viability, T/C (second compound 0.316 µM, first compound 0.1 µM) was 48.2% and the viability, T/C (second compound 0.316 µM, first compound 0.316 µM) was 42.5%. It also gave a viability, T/C (second compound 0.316 µM, first compound 1 µM) of 36.1%, a viability, T/C (second compound 0.316 µM, first compound 3.16 µM) of 31.7% and a viability, T/C (second compound 0.316 µM, first compound 10 µM) of 33.4%. It also gave a viability, T/C (second compound 1 µM, first compound 0.0316 µM) of 67.3%, a viability, T/C (second compound 1 µM, first compound 0.1 µM) of 43.1% and a viability, T/C (second compound 1 µM, first compound 0.316 µM) of 41%. For the same compound, the viability, T/C (second compound 1 µM, first compound 1 µM) was 36.1%, the viability, T/C (second compound 1 µM, first compound 3.16 µM) was 38.4% and the viability, T/C (second compound 1 µM, first compound 10 µM) was 34.3%. For the same compound, the viability, T/C (second compound 3.16 µM, first compound 0.0316 µM) was 61.5%, the viability, T/C (second compound 3.16 µM, first compound 0.1 µM) was 54.5% and the viability, T/C (second compound 3.16 µM, first compound 0.316 µM) was 38.8%. For the same compound, the viability, T/C (second compound 3.16 µM, first compound 1 µM) was 37.2%, the viability, T/C (second compound 3.16 µM, first compound 3.16 µM) was 34.5% and the viability, T/C (second compound 3.16 µM, first compound 10 µM) was 38.6%. It also gave a viability, T/C (second compound 10 µM, first compound 0.0316 µM) of 62.7%, a viability, T/C (second compound 10 µM, first compound 0.1 µM) of 43.7% and a viability, T/C (second compound 10 µM, first compound 0.316 µM) of 37.5%. The viability, T/C (second compound 10 µM, first compound 1 µM) was 35.7%, the viability, T/C (second compound 10 µM, first compound 3.16 µM) was 39% and the viability, T/C (second compound 10 µM, first compound 10 µM) was 35.4%.
